Source: publication PMC10400579, “FDW028, a novel FUT8 inhibitor, impels lysosomal proteolysis of B7-H3 via chaperone-mediated autophagy pathway and exhibits potent efficacy against metastatic colorectal cancer” (Cell Death & Disease, 2023)

Experiments:
[1] = target: T1, Fucosyltransferase 8 (FUT8) (Homo sapiens, UniProt Q9BYC5); assay: grating-coupled interferometry (GCI) with immobilized FUT8; supported by thermal shift of FUT8-Flag from SW480 cells (Tm +[…] °C at […]); format: binding
T1 sequence (Q9BYC5 31-575): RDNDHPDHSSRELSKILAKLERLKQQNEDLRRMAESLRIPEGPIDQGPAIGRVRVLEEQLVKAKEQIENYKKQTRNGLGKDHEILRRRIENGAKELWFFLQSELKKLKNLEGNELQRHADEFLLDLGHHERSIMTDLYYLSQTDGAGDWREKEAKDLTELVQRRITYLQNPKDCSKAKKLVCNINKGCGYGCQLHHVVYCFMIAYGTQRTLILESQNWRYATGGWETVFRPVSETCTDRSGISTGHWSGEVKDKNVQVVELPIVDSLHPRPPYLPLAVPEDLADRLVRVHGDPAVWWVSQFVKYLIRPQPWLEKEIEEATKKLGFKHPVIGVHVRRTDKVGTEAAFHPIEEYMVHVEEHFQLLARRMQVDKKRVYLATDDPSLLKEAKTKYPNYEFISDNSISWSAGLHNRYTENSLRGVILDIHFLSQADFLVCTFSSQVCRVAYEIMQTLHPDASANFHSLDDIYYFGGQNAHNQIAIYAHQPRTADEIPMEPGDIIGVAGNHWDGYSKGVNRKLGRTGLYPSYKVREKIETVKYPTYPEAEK

[2] = target: T2, Fucosyltransferase 8 (FUT8) (Homo sapiens, UniProt Q9BYC5); assay: streptavidin pulldown from SW480 lysate with […] probe, western blot and LC-MS/MS; format: cell-based
T2 construct: FUT8-Flag
T2 sequence (Q9BYC5 1-575): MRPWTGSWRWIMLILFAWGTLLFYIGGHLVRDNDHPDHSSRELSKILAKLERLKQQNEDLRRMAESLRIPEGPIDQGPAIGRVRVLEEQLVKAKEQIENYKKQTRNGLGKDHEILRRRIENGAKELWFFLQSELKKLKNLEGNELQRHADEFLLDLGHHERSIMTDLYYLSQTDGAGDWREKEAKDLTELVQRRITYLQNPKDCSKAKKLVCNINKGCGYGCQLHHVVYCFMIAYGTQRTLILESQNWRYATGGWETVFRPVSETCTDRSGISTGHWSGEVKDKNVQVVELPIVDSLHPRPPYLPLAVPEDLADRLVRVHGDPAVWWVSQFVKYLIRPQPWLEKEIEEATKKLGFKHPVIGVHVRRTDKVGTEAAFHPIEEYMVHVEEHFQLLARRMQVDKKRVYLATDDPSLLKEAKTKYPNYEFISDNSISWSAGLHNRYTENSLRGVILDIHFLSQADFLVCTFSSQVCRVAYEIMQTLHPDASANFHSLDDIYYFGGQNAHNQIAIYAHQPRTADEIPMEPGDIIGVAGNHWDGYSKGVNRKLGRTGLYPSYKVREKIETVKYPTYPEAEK

| Kd [1] | Compound | streptavidin pulldown from SW480 lysate with 0.2 mM probe, western blot and LC-M [2] |
| --- | --- | --- |
| 5.49 µM | CCc1ccc(CNc2nc3nc(CNCc4ccccc4)cc(O)n3n2)cc1 [D2-1c, FDW028] |  |
|  | CCc1ccc(CNc2nc3nc(CN(Cc4ccccc4)C(=O)CCOCCOCCOCCOCCOCCOCCNC(=O)CCCC[C@@H]4SC[C@@H]5NC(=O)N[C@@H]54)cc(O)n3n2)cc1 [FDW028-PEG6-biotin] | much more FUT8-Flag was pulled down by FDW028-PEG6-biotin than the control |
